# Source: patent US20040214832A1, “Piperazine derivative renin inhibitors” (priority 2003, published 2004)
# Biological target: T1, human renin (Homo sapiens, UniProt P00797)
# T1 sequence (P00797 67-406): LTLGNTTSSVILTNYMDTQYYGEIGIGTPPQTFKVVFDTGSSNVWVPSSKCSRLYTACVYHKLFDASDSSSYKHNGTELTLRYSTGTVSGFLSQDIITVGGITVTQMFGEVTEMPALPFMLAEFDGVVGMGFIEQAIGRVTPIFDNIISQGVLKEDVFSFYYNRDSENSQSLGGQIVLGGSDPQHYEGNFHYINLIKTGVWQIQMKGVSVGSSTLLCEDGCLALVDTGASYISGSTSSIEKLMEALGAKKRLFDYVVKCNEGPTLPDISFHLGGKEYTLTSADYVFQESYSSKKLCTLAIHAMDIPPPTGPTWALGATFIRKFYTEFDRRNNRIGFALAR
# Assay: Determination of renin IC50 by tGFP FRET assay
# Type: biochemical
# Conditions: Human recombinant renin, tandem GFP substrate 650 nM, 60 min incubation with compound, pH 7.4, 11-point curve
# Text: Determination of Renin IC50 by tGFP FRET Assay
# The tGFP FRET (fluorescence resonance energy transfer) assay utilizes a tandem GFP substrate (60 kDa, Discovery Technologies) containing nine amino acid recognition sequences for human renin flanked by two GFP proteins. The assay is used to determine the ability of a compound to act as an inhibitor of renin enzymatic activity by determination of that concentration of test compound that inhibits by 50% (IC50) the ability of renin to cleave the tandem GFP substrate. The IC50 values are determined over an 11-point curve at concentrations of 100 μM to 1 pM. Each compound concentration used to construct the curve was dependent on renin inhibitor potency. For example, subnanomolar IC50 values were determined over an 11-point curve at concentrations of 10 μM to 1 pM. All other IC50 values were determined over an 11-point curve at concentrations of 100 μM to 0.0065 μM. The concentrations were achieved by diluting a 9.1 nM stock of Human recombinant renin in the appropriate amount of buffer containing 50 mM HEPES, 1 mM EDTA, 1% PEG (8000 MW), 1 mM DTT, 0.1% BSA, pH 7.4 to achieve the final concentration of 50.4 μIU. The tGFP substrate stock solution of 43 μM was diluted with the appropriate amount of the above buffer to obtain the final concentration of 650 nM. In addition, 1 μl of the compound is diluted in dimethylsulfoxide (DMSO) to represent an […] log scale (5% final). The SR renin and compound are added to a 384 capacity plate by an automated robot (BIOMEK). The plate is incubated for 60 minutes; upon completion the tGFP substrate is added.
# The IC50 is determined by monitoring the increase in […] at 432/432 nm excitation, 530/475 nm emission with a cutoff at 515/455 nm, in a fluorometric plate reader.
row,IC50 [nM],SMILES
1,2550,"COc1ccccc1COCCOCc1ccc(N2CCNC[C@@H]2COc2ccc3ccccc3c2)cc1 [Example 94, (2R)-1-{4-[2-(2-methoxybenzyloxy)-ethoxymethyl]-phenyl}-2-(naphthalene-2-yloxymethyl)-piperazine]"
2,> 1000,"COc1ccccc1COCCCOc1ccc(N2C(=O)CNC[C@@H]2COC(=O)c2ccc(Cl)cc2)cc1 [Example 60, 4-chloro-benzoic acid (2R)-1-{4-[3-(2-methoxybenzyloxy)-propoxy]-phenyl}-6-oxopiperazin-2-yl methyl ester]"
3,6,"CCOC(=O)Cn1ccc2ccc(OC[C@H]3CNCC(=O)N3c3ccc(OCCCOCc4ccccc4OC)cc3)cc21 [Example 132, [6-([2R]-1-{4-[3-(2-Methoxybenzyloxy)-propoxy]-phenyl}-6-oxo-piperazin-2-ylmethoxy)-indol-1-yl]-acetic acid ethyl ester]"
4,337,"COc1ccccc1COCCCOc1ccc(N2C(=O)CNC[C@@H]2COCc2ccc(C)cc2)cc1 [Example 7, (6R)-1-{4-[3-(2-methoxybenzyloxy)-propoxy]-phenyl}-6-(4-methylbenzyloxymethyl)-piperazin-2-one]"
5,181,"COc1ccccc1COCCCOc1ccc(N2C(=O)CNC[C@@H]2COCc2ccc(Cl)c(Cl)c2)cc1 [Example 2, (6R)-6-(3,4-dichlorobenzyloxymethyl)-1-{4-[3-(2-methoxybenzyloxy)-propoxy]-phenyl}-piperazin-2-one]"
6,10900,"COc1ccc(COC[C@H]2CNCCN2c2ccc(OCCCOCc3ccccc3)cc2)cc1 [Example 34, (2R)-1-[4-(3-benzyloxypropoxy)-phenyl]-2-(4-methoxybenzyloxymethyl)-piperazine]"
7,> 1000,"COc1ccccc1COCCCOc1ccc(N2C(=O)CNC[C@@H]2COCc2ccc(Br)cc2)cc1 [Example 30, (6R)-6-(4-bromobenzyloxymethyl)-1-{4-[3-(2-methoxybenzyloxy)-propoxy]-phenyl}-piperazin-2-one]"
8,379,"COc1ccccc1COCCCOc1ccc(N2C(=O)CNC[C@@H]2COc2ccc3c(c2)N(Cc2cscn2)CCC3)cc1 [Example 55, (6R)-1-{4-[3-(2-methoxybenzyloxy)-propoxy]-phenyl}-6-(1-thiazol-4-ylmethyl-1,2,3,4-tetrahydroquinolin-7-yloxymethyl)-piperazin-2-one]"
9,> 1000,"c1ccc(COc2ccc(N3CCNC[C@@H]3COc3ccc4ccccc4c3)cc2)cc1 [Example 35, (2R)-1-(4-benzyloxyphenyl)-2-(naphthalen-2-yloxymethyl)-piperazine]"
10,1420,"c1ccc(COCCCOc2ccc(N3CCNC[C@@H]3COc3ccc4ccccc4c3)cc2)cc1 [Example 38, (2R)-1-[4-(3-benzyloxypropoxy)-phenyl]-2-(naphthalen-2-yloxymethyl)-piperazine]"
11,> 1000,"COc1ccccc1COCCCOc1ccc(N2C(=O)CNC[C@@H]2COCc2c(Cl)cccc2Cl)cc1 [Example 17, (6R)-6-(2,6-dichlorobenzyloxymethyl)-1-{4-[3-(2-methoxybenzyloxy)-propoxy]-phenyl}-piperazin-2-one]"
12,> 1000,"COc1ccc(COC[C@H]2CNCCN2c2ccc(COCCCOc3ccccc3OC)cc2)cc1 [Example 70, (2R)-2-(4-methoxybenzyloxymethyl)-1-{4-[3-(2-methoxyphenoxy)-propoxymethyl]-phenyl}-piperazine]"
13,> 1000,"COc1ccccc1COCCCOc1ccc(N2C(=O)CNC[C@@H]2CNC(=O)c2ccccc2)cc1 [Example 84, N-([2R]-1-{4-[3-(2-methoxy-benzyloxy)-propoxy]-phenyl}-6-oxopiperazin-2-ylmethyl)-benzamide]"
14,> 1000,"COc1ccccc1CSCCCOc1ccc(N2C(=O)CNC[C@@H]2COc2ccc3ccccc3c2)cc1 [Example 101, (6R)-1-{4-[3-(2-methoxybenzylsulfanyl)-propoxy]-phenyl}-6-(naphthalene-2-yloxymethyl)-piperazin-2-one]"
15,1980,"CCOc1ccccc1COCCCOc1ccc(N2CCNC[C@@H]2COc2ccc3ccccc3c2)cc1 [Example 88, (2R)-1-{4-[3-(2-ethoxybenzyloxy)-propoxy]-phenyl}-2-(naphthalen-2-yloxymethyl)-piperazine]"
16,167,"COc1ccccc1COCCCOc1ccc(N2C(=O)CNC[C@@H]2COc2ccc3ccccc3c2)cc1C [Example 103, (6R)-1-{4-[3-(2-methoxybenzyloxy)-propoxy]-3-methyl-phenyl}-6-(naphthalene-2-yloxymethyl)-piperazin-2-one]"
17,> 1000,"COc1ccccc1COCCCOc1ccc(N2C(=O)CNC[C@@H]2COCc2ccc(C#N)cc2)cc1 [Example 28, (6R)-4-(1-{4-[3-(2-methoxybenzyloxy)-propoxy]-phenyl}-6-oxopiperazin-2-ylmethoxymethyl)-benzonitrile]"
18,33900,"COc1ccccc1COCCCOc1ccc(N2C(=O)CNC[C@@H]2COc2ncccn2)cc1 [Example 81, (6R)-1-{4-[3-(2-methoxybenzyloxy)-propoxy]-phenyl}-6-(pyrimidin-2-yloxymethyl)-piperazin-2-one]"
19,153,"COc1ccccc1COCCCOc1ccc(N2CCNC[C@@H]2COc2ccc3ccccc3c2)cc1 [Example 32, (2R)-1-{4-[3-(2-methoxybenzyloxy)-propoxy]-phenyl}-2-(naphthalen-2-yloxymethyl)-piperazine]"
20,3450,"COc1ccccc1COCCCOc1ccc(N2C(=O)CNC[C@@H]2COc2ccc3ncccc3c2)cc1 [Example 52, (6R)-1-{4-[3-(2-methoxybenzyloxy)-propoxy]-phenyl}-6-(quinolin-6-yloxymethyl)-piperazin-2-one]"
21,15900,"COc1ccc(COC[C@H]2CNCCN2c2ccc(OCCCOCc3ccccc3Cl)cc2)cc1 [Example 66, (2R)-1-{4-[3-(2-chlorobenzyloxy)-propoxy]-phenyl}-2-(4-methoxybenzyloxymethyl)-piperazine]"
22,15600,"COc1ccc(COC[C@H]2CNCCN2c2ccc(OCCCOCc3cccc(OC)c3)cc2)cc1 [Example 69, (2R)-2-(4-methoxybenzyloxymethyl)-1-{4-[3-(3-methoxybenzyloxy)-propoxy]-phenyl}-piperazine]"
23,372,"COc1ccccc1COCCCOc1ccc(N2C(=O)CNC[C@@H]2COCc2cccc(C)c2)cc1 [Example 15, (6R)-1-{4-[3-(2-methoxybenzyloxy)-propoxy]-phenyl}-6-(3-methylbenzyloxymethyl)-piperazin-2-one]"
24,4090,"COc1ccccc1COCCOCc1ccc(N2C(=O)CNC[C@@H]2COCc2ccc(F)cc2)cc1 [Example 74, (6R)-6-(4-fluorobenzyloxymethyl)-1-{4-[2-(2-methoxybenzyloxy)-ethoxymethyl]-phenyl}-piperazin-2-one]"
25,54,"COc1ccccc1COCCCOc1ccc(N2C(=O)CNC[C@@H]2COc2ccc3ccccc3c2)cc1 [Example 37, (6R)-1-{4-[3-(2-methoxybenzyloxy)-propoxy]-phenyl}-6-(naphthalen-2-yloxymethyl)-piperazin-2-one]"
26,1700,"COc1ccccc1COCCCOc1ccc(N2CCNC[C@@H]2COCc2ccc3ccccc3c2)cc1 [Example 90, (2R)-1-{4-[3-(2-methoxybenzyloxy)-propoxy]-phenyl}-2-(naphthalen-2-ylmethoxymethyl)-piperazine]"
27,26300,"COc1ccccc1OCCCOCc1ccc(N2CCNC[C@@H]2COc2ccc3ccccc3c2)cc1 [Example 97, (2R)-1-(4-[3-(2-methoxyphenoxy)-propoxymethyl]-phenyl)-2-(naphthalene-2-yloxymethyl)-piperazine]"
28,5,"CC(=O)NCCN1CCCc2ccc(OC[C@H]3CNCC(=O)N3c3ccc(OCCCOCc4ccccc4F)cc3)cc21 [Example 126, N-{2-[7-([2R]-1-{4-[3-(2-Fluorobenzyloxy)-propoxy]-phenyl}-6-oxopiperazin-2-ylmethoxy)-3,4-dihydro-2H-quinolin-1-yl]-ethyl}-acetamide]"

row,SMILES,IC50 [nM]
1,"COc1ccccc1OCCCCOc1ccc(N2C(=O)CNC[C@@H]2COCc2ccc(F)cc2)cc1 [Example 71, (6R)-6-(4-fluorobenzyloxymethyl)-1-{4-[4-(2-methoxyphenoxy)-butoxy]-phenyl}-piperazin-2-one]",3840
2,"COc1ccccc1OCCCCOc1ccc(N2CCNC[C@@H]2COc2ccc3ccccc3c2)cc1 [Example 108, (2R)-1-{4-[4-(2-methoxyphenoxy)-butoxy]-phenyl}-2-(naphthalene-2-yloxymethyl)-piperazine]",1360
